Nine molecules from PubChem BioAssay (NCI) can be followed below.

Among the test systems are ACHN renal; NCI-H522 lung; COLO 205 colon; SNB-75 CNS; HOP-62 NSCLC; UACC-257 melanoma; HCT-15 colon; CCRF-CEM leukemia; 786-0 renal; U251 CNS.
What all share (test): NCI-60 cell line screen, 48 h

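1) Cells in 96-well plates. 2) Compound, 48 h, 5 concentrations. 3) Linear interpolation between surrounding doses. 4) Unreached endpoint = highest concentration. Here, GI50 denotes the concentration required for 50% inhibition of growth. Definition used: TGI = concentration required for complete inhibition of growth.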

For `CCCNCCCC(NC(C)=O)C(=O)NCc1ccccc1` (stereo not given), the TGI with ACHN renal, in the experiment with NCI-H522 lung, in the experiment with COLO 205 colon, in the experiment with SNB-75 CNS, in the experiment on HOP-62 NSCLC and with UACC-257 melanoma was over 100 µM in each case. The TGI with HCT-15 colon, with CCRF-CEM leukemia, in the experiment with 786-0 renal and in the experiment with U251 CNS was over 100 µM in each case.

Turning to `CCOC(=O)C1(Br)C(c2ccccc2)NC(=O)NC1(C)Br` (stereo not given), the TGI is over 100 µM in the experiment with ACHN renal; over 53.2 µM in the experiment on NCI-H522 lung; over 100 µM in the experiment on COLO 205 colon; over 100 µM in the experiment with SNB-75 CNS; over 100 µM with HOP-62 NSCLC; over 100 µM in the experiment on UACC-257 melanoma. Also, the TGI with HCT-15 colon is over 100 µM; in the experiment with CCRF-CEM leukemia, 99.8 µM; in the experiment with 786-0 renal, over 100 µM; with U251 CNS, 49.4 µM.

`O=C1C=C(NCCNC(=S)Nc2ccccc2)c2nccc3c2c1nc1ccccc13`: the GI50 in the experiment on ACHN renal was 38.6 µM; with NCI-H522 lung, 46.8 µM; in the experiment on COLO 205 colon it was 9.18 µM; in the experiment on SNB-75 CNS, over 100 µM; in the experiment on HOP-62 NSCLC, 81.7 µM; with UACC-257 melanoma it was 93.2 µM. Besides, the GI50 was 34.9 µM in the experiment with HCT-15 colon, over 100 µM in the experiment on CCRF-CEM leukemia, 94.5 µM in the experiment with 786-0 renal and 58.9 µM in the experiment with U251 CNS. Also, the TGI with ACHN renal, with NCI-H522 lung, in the experiment on COLO 205 colon, in the experiment with SNB-75 CNS, in the experiment on HOP-62 NSCLC and with UACC-257 melanoma was over 100 µM in each case. The TGI in the experiment on HCT-15 colon, with CCRF-CEM leukemia, in the experiment with 786-0 renal and in the experiment on U251 CNS was over 100 µM each time.

Take `COc1ccccc1/C=C1\CCC(CCN(C)C)(C2=CCCC2)C1=O` (stereo not given): the TGI was 34.1 µM in the experiment on ACHN renal; 27.1 µM in the experiment with NCI-H522 lung; 22.1 µM in the experiment on COLO 205 colon; 54.7 µM in the experiment with SNB-75 CNS; 34.5 µM with HOP-62 NSCLC; 31 µM in the experiment with UACC-257 melanoma. In addition, the TGI with HCT-15 colon amounted to 61.8 µM; in the experiment on CCRF-CEM leukemia, 51.6 µM; in the experiment on 786-0 renal, 28.5 µM; in the experiment with U251 CNS, 31.1 µM.

Take `C[C@H](NC(=O)[C@@H]1CSSC[C@@H](NC(=O)c2nc3ccccc3cc2O)C(=O)NCC(=O)N1C)c1ccccc1`: the GI50 in the experiment with ACHN renal was 4.63 µM; in the experiment with NCI-H522 lung, 3.13 µM; with COLO 205 colon, 0.963 µM; in the experiment with SNB-75 CNS it was 7.62 µM; in the experiment on HOP-62 NSCLC, 11.6 µM; in the experiment on UACC-257 melanoma, 7.63 µM. The GI50 in the experiment with HCT-15 colon is 2.55 µM; in the experiment on CCRF-CEM leukemia, 1.89 µM; in the experiment with 786-0 renal, 2.45 µM; with U251 CNS it was 2.38 µM. Also, the TGI in the experiment on ACHN renal was 12.8 µM; in the experiment on NCI-H522 lung it was 10.2 µM; in the experiment on COLO 205 colon, 2.34 µM; in the experiment with SNB-75 CNS, 43.1 µM; with HOP-62 NSCLC, 20.7 µM; with UACC-257 melanoma it was 24.6 µM. The TGI amounted to 9.62 µM in the experiment on HCT-15 colon, 10.5 µM in the experiment with CCRF-CEM leukemia, 9.78 µM in the experiment with 786-0 renal and 7.46 µM in the experiment on U251 CNS.

Take `COC[C@@H](N=CN1CCc2cc(OC)c(OC)cc2[C@@H]1C)C(C)(C)C`: the TGI with ACHN renal, with NCI-H522 lung, in the experiment with COLO 205 colon, in the experiment with SNB-75 CNS, with HOP-62 NSCLC and in the experiment with UACC-257 melanoma was over 100 µM each time. Further, the TGI in the experiment with HCT-15 colon, in the experiment with CCRF-CEM leukemia, in the experiment with 786-0 renal and in the experiment with U251 CNS was over 100 µM throughout.

As for `O=Cc1ccccc1OCCOc1cc(OCCOc2ccccc2C=O)c(OCCOc2ccccc2C=O)cc1OCCOc1ccccc1C=O`, the TGI in the experiment on ACHN renal was over 92.5 µM; in the experiment with NCI-H522 lung, over 100 µM; with COLO 205 colon, over 100 µM; with SNB-75 CNS it was 23.9 µM; in the experiment with HOP-62 NSCLC it was over 100 µM; with UACC-257 melanoma, over 100 µM. Also, the TGI was over 100 µM with HCT-15 colon, over 100 µM in the experiment on CCRF-CEM leukemia, over 71.3 µM in the experiment with 786-0 renal and over 50.1 µM in the experiment with U251 CNS.

As to `COc1ccc(N2Cc3cnc(Nc4ccccc4)nc3N([C@@H]3CC[C@@H](O)C3)C2=O)cc1`, the GI50 was 0.984 µM in the experiment on ACHN renal; 2.93 µM in the experiment on NCI-H522 lung; 2.76 µM with COLO 205 colon; 0.377 µM in the experiment on SNB-75 CNS; 8.87 µM with HOP-62 NSCLC; 7.36 µM in the experiment with UACC-257 melanoma. Moreover, the GI50 in the experiment on HCT-15 colon was 1.66 µM; in the experiment on CCRF-CEM leukemia, 5.98 µM; in the experiment on 786-0 renal, 3.08 µM; in the experiment with U251 CNS, 1.01 µM. Also, the TGI in the experiment on ACHN renal is over 25 µM; in the experiment on NCI-H522 lung, over 18.8 µM; with COLO 205 colon, over 25 µM; with SNB-75 CNS, 3.58 µM; with HOP-62 NSCLC it was over 25 µM; in the experiment on UACC-257 melanoma, over 25 µM. Also, the TGI with HCT-15 colon, in the experiment on CCRF-CEM leukemia, in the experiment with 786-0 renal and with U251 CNS was over 25 µM in each case.

For the molecule `O=C1c2ccc([N+](=O)[O-])cc2-c2c1c1ccccc1c(=O)n2CCCNCCCNCCCn1c2c(c3ccc([N+](=O)[O-])cc3c1=O)C(=O)c1ccccc1-2`, the GI50 is 4.26 µM with ACHN renal; 7.1 µM in the experiment with NCI-H522 lung; 1.33 µM in the experiment with COLO 205 colon; 0.427 µM in the experiment with SNB-75 CNS; 1.85 µM in the experiment with HOP-62 NSCLC; 18 µM in the experiment with UACC-257 melanoma. Also, the GI50 in the experiment with HCT-15 colon was 3.4 µM; in the experiment with CCRF-CEM leukemia, 1.77 µM; in the experiment on 786-0 renal, 1.2 µM; with U251 CNS, 3.42 µM. Besides, the TGI amounted to 15.9 µM with ACHN renal; 32.3 µM in the experiment with NCI-H522 lung; 6.83 µM in the experiment on COLO 205 colon; 5.54 µM in the experiment on SNB-75 CNS; 12.4 µM in the experiment with HOP-62 NSCLC; 59.6 µM in the experiment on UACC-257 melanoma. Further, the TGI was 14.3 µM in the experiment with HCT-15 colon, 5.62 µM in the experiment with CCRF-CEM leukemia, 7.21 µM in the experiment on 786-0 renal and 15.3 µM with U251 CNS.
